Data reported in PubChem BioAssay AID248 (DTP/NCI, 2004).
Where “and” joins values, the source holds several entries; their conditions need not be identical. Equal entries are not always repeated. Toxic doses and inconclusive results are not listed. Rule as the data show it: active = T/C of 150% or more; inactive = T/C below 125%.

System: L1210 leukemia ip in BDF1 mice, survival T/C
Experiment: NCI In Vivo Anticancer Drug Screen. Data for tumor model L1210 Leukemia (intraperitoneal) in B6D2F1 (BDF1) mice
Conditions: endpoint: mean survival time, higher = longer survival
Procedure, shortened: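 Antitumor effect is assessed in tumor-bearing animals. Survival in the compound arm is compared with a vehicle-dosed control arm and expressed as their quotient.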

[1] = dose: 100.0 mg/kg/injection, schedule: Q01DX009 (ip), vehicle: Klucel (hydroxypropylcellulose) (HPC)
[2] = dose: 100.0 mg/kg/injection, schedule: Q04DX003 (ip), vehicle: Klucel (hydroxypropylcellulose) (HPC)
[3] = dose: 200.0 mg/kg/injection, schedule: Q01DX009 (ip), vehicle: Klucel (hydroxypropylcellulose) (HPC)
[4] = dose: 200.0 mg/kg/injection, schedule: Q04DX003 (ip), vehicle: Klucel (hydroxypropylcellulose) (HPC)
[5] = dose: 400.0 mg/kg/injection, schedule: Q01DX009 (ip), vehicle: Klucel (hydroxypropylcellulose) (HPC)
[6] = dose: 400.0 mg/kg/injection, schedule: Q04DX003 (ip), vehicle: Klucel (hydroxypropylcellulose) (HPC)
[7] = dose: 100.0 mg/kg/injection, schedule: Q01DX009 (ip), vehicle: saline with Tween-80
[8] = dose: 200.0 mg/kg/injection, schedule: Q01DX009 (ip), vehicle: saline with Tween-80
[9] = dose: 100.0 mg/kg/injection, schedule: Q01DX001 (ip), vehicle: Klucel (hydroxypropylcellulose) (HPC)
[10] = dose: 200.0 mg/kg/injection, schedule: Q01DX001 (ip), vehicle: Klucel (hydroxypropylcellulose) (HPC)

Measured: T/C

C1CCN2CC3CC(CN4CCCCC34)C2C1 (centres undefined)
inactive: dose: 10.0 mg/kg/injection, schedule: Q01DX009 (ip), vehicle: saline 104 % of control | dose: 20.0 mg/kg/injection, schedule: Q01DX009 (ip), vehicle: saline 102 % of control | dose: 20.0 mg/kg/injection, schedule: Q04DX003 (ip), vehicle: saline 100 % of control | dose: 40.0 mg/kg/injection, schedule: Q01DX009 (ip), vehicle: saline 100 % of control | dose: 40.0 mg/kg/injection, schedule: Q04DX003 (ip), vehicle: saline 96 % of control

COc1cccc2c1CCC/C2=N\N(C)C
inactive: dose: 100.0 mg/kg/injection, schedule: Q04DX003 (sc), vehicle: olive oil, sesame oil, peanut oil 107 % of control | dose: 200.0 mg/kg/injection, schedule: Q04DX003 (sc), vehicle: olive oil, sesame oil, peanut oil 105 % of control | dose: 400.0 mg/kg/injection, schedule: Q04DX003 (sc), vehicle: olive oil, sesame oil, peanut oil 109 % of control

CCOC(=O)CC(N)CC(=O)OCC
inactive: dose: 100.0 mg/kg/injection, schedule: Q01DX001 (ip), vehicle: saline 104 % of control | dose: 200.0 mg/kg/injection, schedule: Q01DX001 (ip), vehicle: saline 104 % of control | dose: 400.0 mg/kg/injection, schedule: Q01DX001 (ip), vehicle: saline 106 % of control

COc1ccc(NC(=O)Nc2ccc(C)c(C)c2)cc1
inactive: [1] 92 % of control | [2] 97 % of control | [3] 91 % of control | [4] 103 % of control | [5] 91 % of control | [6] 95 % of control

CN=C1N[N+]2=CCCCC2(C)S1 (centres undefined)
inactive: dose: 0.2 mg/kg/injection, schedule: Q03HX024 (ip), vehicle: saline 96 % of control | dose: 0.39 mg/kg/injection, schedule: Q03HX024 (ip), vehicle: saline 100 % of control | dose: 0.78 mg/kg/injection, schedule: Q03HX024 (ip), vehicle: saline 93 % of control | dose: 1.56 mg/kg/injection, schedule: Q03HX024 (ip), vehicle: saline 95 % of control | dose: 3.13 mg/kg/injection, schedule: Q03HX024 (ip), vehicle: saline 101 % of control

CNC(=O)O/N=C/c1cccc(OC)c1
inactive: [7] 93 % of control | [8] 100 % of control | dose: 400.0 mg/kg/injection, schedule: Q01DX009 (ip), vehicle: saline with Tween-80 95 % of control

COC12OCC(O)C1OC(=O)C2O (centres undefined)
inactive: dose: 50.0 mg/kg/injection, schedule: Q04DX002 (ip), vehicle: saline 91 % of control | dose: 100.0 mg/kg/injection, schedule: Q04DX002 (ip), vehicle: saline 91 % of control | dose: 200.0 mg/kg/injection, schedule: Q04DX002 (ip), vehicle: saline 95 % of control

CCCN(CCC)CCCOC(=O)c1ccc(N)cc1
inactive: dose: 25.0 mg/kg/injection, schedule: Q01DX009 (ip), vehicle: saline 99 % of control | dose: 44.0 mg/kg/injection, schedule: Q04DX003 (ip), vehicle: saline 86 % of control | dose: 50.0 mg/kg/injection, schedule: Q01DX009 (ip), vehicle: saline 106 % of control | dose: 50.0 mg/kg/injection, schedule: Q04DX003 (ip), vehicle: saline 104 % of control | dose: 66.0 mg/kg/injection, schedule: Q04DX003 (ip), vehicle: saline 88 % of control | dose: 67.0 mg/kg/injection, schedule: Q04DX003 (ip), vehicle: saline 93 % of control | dose: 100.0 mg/kg/injection, schedule: Q01DX009 (ip), vehicle: saline 89 % of control

CSc1ncc(C=O)c(N)n1
inactive: [7] 100 % of control | [8] 96 % of control

CCCC(CN)(CCN1CCOCC1)c1cccc2ccccc12 (centres undefined)
inactive: dose: 100.0 mg/kg/injection, schedule: Q04DX003 (ip), vehicle: saline 98 % of control | dose: 200.0 mg/kg/injection, schedule: Q04DX003 (ip), vehicle: saline 95 % of control

Nc1nc(N)nc(-c2ccccc2N=NN2CCCC2)n1
inactive: [2] 105 % of control | [4] 98 % of control | [6] 95 % of control

Cc1ccc2ccccc2c1CC(=O)O
inactive: [1] 101 % of control | [2] 112 % of control | [3] 95 % of control | [4] 96 % of control | [5] 117 % of control | [6] 96 % of control

Cc1ccc(-c2cn(CCCOc3ccccc3)c(=O)nc2N)cc1
inactive: dose: 50.0 mg/kg/injection, schedule: Q01DX001 (ip), vehicle: Klucel (hydroxypropylcellulose) (HPC) 89 % of control | [9] 99 % of control | [10] 87 % of control

ClC1=C(Cl)C2(Cl)C(COc3ccc(Cl)cc3)CC1(Cl)C2(Cl)Cl (centres undefined)
inactive: dose: 50.0 mg/kg/injection, schedule: Q01DX009 (ip), vehicle: other 91 % of control | [1] 94 % of control | dose: 100.0 mg/kg/injection, schedule: Q04DX003 (ip), vehicle: other 109 % of control | [3] 96 % of control | dose: 200.0 mg/kg/injection, schedule: Q04DX003 (ip), vehicle: other 104 % of control | [5] 96 % of control

c1ccc(C(c2ccccc2)n2cc[n+](C(c3ccccc3)c3ccccc3)c2)cc1
inactive: dose: 12.5 mg/kg/injection, schedule: Q04DX002 (ip), vehicle: gum acacia 96 % of control | dose: 25.0 mg/kg/injection, schedule: Q04DX002 (ip), vehicle: gum acacia 114 % of control

NC(=O)c1c(/N=C/c2cc(Cl)cc(Cl)c2O)sc2c1CCCC2
inactive: dose: 100.0 mg/kg/injection, schedule: Q04DX002 (ip), vehicle: saline with Tween-80 96 % of control | dose: 200.0 mg/kg/injection, schedule: Q04DX002 (ip), vehicle: saline with Tween-80 93 % of control | dose: 400.0 mg/kg/injection, schedule: Q04DX002 (ip), vehicle: saline with Tween-80 96 % of control

O=c1ccsc(=S)[nH]1
inactive: dose: 100.0 mg/kg/injection, schedule: Q01DX001 (ip), vehicle: saline with Tween-80 101 % of control | dose: 200.0 mg/kg/injection, schedule: Q01DX001 (ip), vehicle: saline with Tween-80 104 % of control | dose: 400.0 mg/kg/injection, schedule: Q01DX001 (ip), vehicle: saline with Tween-80 97 % of control

CCCCNc1c(C2=NCCN2)cnc2c1cnn2CC
inactive: dose: 25.0 mg/kg/injection, schedule: Q04DX003 (ip), vehicle: Klucel (hydroxypropylcellulose) (HPC) 92 % of control | dose: 50.0 mg/kg/injection, schedule: Q04DX003 (ip), vehicle: Klucel (hydroxypropylcellulose) (HPC) 99 % of control | [2] 90 % of control and 92 % of control

O=C(Nc1ccccc1)Oc1cccnc1
inactive: [9] 98 % of control | [10] 100 % of control | dose: 400.0 mg/kg/injection, schedule: Q01DX001 (ip), vehicle: Klucel (hydroxypropylcellulose) (HPC) 98 % of control

O=C(Nc1ccc(F)c([N+](=O)[O-])c1)NC(Cc1ccccc1)c1ccccc1 (centres undefined)
inactive: [1] 98 % of control | [3] 101 % of control | [5] 104 % of control
